The source made the active and inactive calls. The calls are words filed in the database; no cut-off is given here. Where only a bound is given, the exact number is not on record here.

The values below come from ChEMBL document CHEMBL3751808, “Gambogic acid induces apoptotic cell death in T98G glioma cells” (Bioorg Med Chem Lett, 2016).

For test [1], the system named is T98G. As to the kind of experiment: Antiproliferative activity against human T98G cells after 24 hrs by EZ-Tox assay. In kind it is functional, cell-based.
Test [2] has as its system T98G. As to the kind of experiment: Induction of apoptosis in human T98G cells assessed as increase of AIF level at 200 to 400 nM after 10 to 24 hrs by Western blot analysis. Type of test: functional, cell-based. Background: Immunoblotting shows a protein as a band on a membrane.
Test [3] has as its system T98G. As to the kind of experiment: Induction of apoptosis in human T98G cells assessed as necrotic cells at 200 nM after 24 hrs using annexin V/propidium iodide staining by FACS analysis. Type of test: functional. Background: Flow cytometry measures light scatter and fluorescence of single cells or particles in a stream.
In test [4] the test system is T98G. As to the kind of experiment: Induction of apoptosis in human T98G cells assessed as decrease in cell viability after 24 hrs using propidium iodide /Hoechst staining by FACS analysis. Type of test: functional, cell-based.
Test [5] concerns T98G. As to the kind of experiment: Induction of apoptosis in human T98G cells assessed as necrotic cells at 400 nM after 24 hrs using annexin V/propidium iodide staining by FACS analysis. In kind it is functional.
For test [6], the system named is T98G. In words: Induction of apoptosis in human T98G cells assessed as increase of cleaved caspase-9 level at 200 to 400 nM after 10 to 24 hrs by Western blot analysis. In kind it is functional, cell-based.
Test [7] has as its system T98G. As to the kind of experiment: Induction of apoptosis in human T98G cells assessed as increase of cytochrome-c protein level at 200 to 400 nM after 10 to 24 hrs by Western blot analysis. In kind it is functional, cell-based.
Test [8] deals with T98G. As to the kind of experiment: Induction of apoptosis in human T98G cells assessed as decrease in cell viability at 200 nM after 24 hrs using propidium iodide /Hoechst staining by FACS analysis in presence of NAC (reference value: 2.9%). Type of test: functional.
Test [9] deals with T98G. As to the kind of experiment: Induction of apoptosis in human T98G cells assessed as decrease in cell viability at 200 nM after 24 hrs using propidium iodide /Hoechst staining by FACS analysis (reference value: 2.9%). Type of test: functional.
The test system of test [10] is T98G. As to the kind of experiment: Induction of apoptosis in human T98G cells assessed as decrease in cell viability at 400 nM after 24 hrs using propidium iodide /Hoechst staining by FACS analysis in presence of NAC (reference value: 2.9%). Type of test: functional.
Test [11] deals with T98G. In words: Induction of apoptosis in human T98G cells assessed as early-stage apoptotic cells at 400 nM after 24 hrs using annexin V/propidium iodide staining by FACS analysis. In kind it is functional.
Test [12] relates to T98G. In words: Induction of apoptosis in human T98G cells assessed as increase of ROS level at 400 nM after 8 hrs using DCFH-DA staining by FACS analysis in presence of NAC (reference value: 2.4%). In kind it is functional.
Test [13] deals with T98G. In words: Induction of apoptosis in human T98G cells assessed as early-stage apoptotic cells at 200 nM after 24 hrs using annexin V/propidium iodide staining by FACS analysis. Type of test: functional.
Test [14] deals with T98G. As to the kind of experiment: Induction of apoptosis in human T98G cells assessed as increase of ROS level at 200 nM after 8 hrs using DCFH-DA staining by FACS analysis in presence of NAC (reference value: 2.4%). In kind it is functional.
The test system of test [15] is T98G. As to the kind of experiment: Induction of apoptosis in human T98G cells assessed as increase of cleaved caspase-8 level at 200 to 400 nM after 10 to 24 hrs by Western blot analysis. Type of test: functional, cell-based.
Test [16] relates to T98G. As to the kind of experiment: Induction of apoptosis in human T98G cells assessed as increase of ROS level at 200 nM after 8 hrs using DCFH-DA staining by FACS analysis (reference value: 2.4%). In kind it is functional.
Test [17] concerns T98G. As to the kind of experiment: Induction of apoptosis in human T98G cells assessed as increase of cleaved PARP level at 200 to 400 nM after 10 to 24 hrs by Western blot analysis. Type of test: functional, cell-based.
For test [18], the system named is T98G. In words: Induction of apoptosis in human T98G cells assessed as decrease of Bcl-2 level at 200 to 400 nM after 10 to 24 hrs by Western blot analysis. Type of test: functional, cell-based.
Test [19] deals with T98G. As to the kind of experiment: Induction of apoptosis in human T98G cells assessed as increase of Bax level at 200 to 400 nM after 10 to 24 hrs by Western blot analysis. Type of test: functional, cell-based.
Test [20] concerns T98G. As to the kind of experiment: Induction of apoptosis in human T98G cells assessed as increase of ROS level at 200 to 400 nM after 10 hrs using DCFH-DA staining by fluorescence microscopic analysis. Type of test: functional, cell-based.
Test [21] deals with T98G. As to the kind of experiment: Induction of apoptosis in human T98G cells assessed as late-stage apoptotic cells at 200 nM after 24 hrs using annexin V/propidium iodide staining by FACS analysis. Type of test: functional.
The subject of test [22] is T98G. As to the kind of experiment: Induction of apoptosis in human T98G cells assessed as decrease in cell viability at 400 nM after 24 hrs using propidium iodide /Hoechst staining by FACS analysis (reference value: 2.9%). Type of test: functional.
Test [23] concerns T98G. As to the kind of experiment: Induction of apoptosis in human T98G cells assessed as late-stage apoptotic cells at 400 nM after 24 hrs using annexin V/propidium iodide staining by FACS analysis. In kind it is functional.
For test [24], the system named is T98G. As to the kind of experiment: Induction of apoptosis in human T98G cells assessed as increase of ROS level at 200 to 400 nM after 10 hrs using DCFH-DA staining by fluorescence microscopic analysis in presence of NAC. Type of test: functional, cell-based.
Test [25] has as its system T98G. As to the kind of experiment: Induction of apoptosis in human T98G cells assessed as increase of ROS level at 400 nM after 8 hrs using DCFH-DA staining by FACS analysis (reference value: 2.4%). Type of test: functional.
In test [26] the test system is T98G. As to the kind of experiment: Induction of apoptosis in human T98G cells assessed as increase of cleaved caspase-3 level at 200 to 400 nM after 10 to 24 hrs by Western blot analysis. In kind it is functional, cell-based.
Test [27] concerns T98G. As to the kind of experiment: Antiproliferative activity against human T98G cells assessed as cell viability after 72 hrs by MTT assay. In kind it is functional, cell-based. (Tetrazolium assays rely on reduction of a dye to a coloured formazan, in cell work by metabolically active cells.)

As to `COc1cccc2c1C(=O)c1c(O)c3c(c(O)c1C2=O)C[C@@](O)(C(=O)CO)C[C@@H]3O[C@H]1C[C@H](N)[C@H](O)[C@H](C)O1` [DOXORUBICIN], the half-maximal inhibitory concentration (IC50) with T98G [1] was determined as 0.5 µM.

With `CC(C)=CCC[C@]1(C)C=Cc2c(O)c3c(c(CC=C(C)C)c2O1)O[C@]12C(=C[C@@H]4C[C@H]1C(C)(C)O[C@@]2(C/C=C(/C)C(=O)O)C4=O)C3=O` [GAMBOGIC ACID], the outcome with T98G [2], in the test on T98G [6], in the test on T98G [7], in the test with T98G [15], in the test with T98G [17] and in the test with T98G [18] was Active. Also, the result with T98G [19], in the test on T98G [20] and in the test with T98G [26] was Active. The Activity is 4% in the test on T98G [3]; “Dose-dependent effect” with T98G [4]; 27.6% in the test with T98G [5]; 5.8% in the test on T98G [8]; 33.4% in the test on T98G [9]; 6% with T98G [10]. Also, the Activity in the test on T98G [11] is 12.6%; in the test on T98G [12] it was 2.6%; with T98G [13] it was 32.3%; in the test on T98G [14], 2.8%; with T98G [16], 38.5%; with T98G [1], “Dose-dependent effect”. Moreover, the Activity with T98G [21] is 8.57%; in the test with T98G [22], 76.6%; in the test with T98G [23] it was 13.7%; with T98G [25], 36.5%. This molecule gave a half-inhibitory concentration (IC50) in the test with T98G [1] of no more than 0.3 µM. Further, the result with T98G [24] was inactive.

Turning to `COc1cc(/C=C/C(=O)CC(=O)/C=C/c2ccc(O)c(OC)c2)ccc1O` [CURCUMIN], the IC50 was found to be 25 µM in the test with T98G [27] and 10 µM with T98G [1].

Consider `O=C(O[C@@H]1Cc2c(O)cc(O)cc2O[C@@H]1c1cc(O)c(O)c(O)c1)c1cc(O)c(O)c(O)c1` [EPIGALOCATECHIN GALLATE], for which, in the test on T98G [1], half-maximal inhibition (IC50) was put at 166 µM.

As usually defined, the IC50 is the midpoint of a concentration-inhibition curve.
